For data set [1], the system named is human liver microsomes (HLM). To be noted: mean over voriconazole 0.5, 1, 2, 3 µM.
Data set [2] concerns CYP2C19 (loratadine), CYP2C9 (sulfaphenazole), CYP3A4 (ketoconazole). The data set is described as follows: in vitro. The following applies: human; for inhibition at 3 µM: pH 7.5; for activity: pH 7.5, % of Uninhibited Control (voriconazole N-oxidation velocity), HLM.
Substrate in the data set “not read”: C[C@@H](c1ncncc1F)[C@](O)(Cn1cncn1)c1ccc(F)cc1F
The data set is described as follows: not read. To be noted: other: N-oxidation of voriconazole.

The term inhibition denotes the drop in the measured response relative to a control, in per cent. Read a high inhibition as a strong effect.

In the case of `Nc1ccc(S(=O)(=O)Nc2ccnn2-c2ccccc2)cc1` [sulfaphenazole], the “Mean (SD) % of Uninhibited Control” value in data set [1] is 63.8 (2.69) %. Moreover, at 3 µM the inhibition in data set [2] was 36.2%. For the same molecule, the activity in data set [2] (voriconazole 0.5 µM) was 64.8%; in data set [2] (voriconazole 1 µM), 60.7%; in data set [2] (voriconazole 2 µM), 62.6%; in data set [2] (voriconazole 3 µM), 66.9%.

For the molecule `CC(=O)N1CCN(c2ccc(OCC3COC(Cn4ccnc4)(c4ccc(Cl)cc4Cl)O3)cc2)CC1` (centres unmarked) [ketoconazole], in data set [1], the “Mean (SD) % of Uninhibited Control” value is recorded as 52.4 (4.26) %. In data set [2], the inhibition at 3 µM came out at 47.6%. In addition, the activity in data set [2] (voriconazole 0.5 µM) came to 49.8%; in data set [2] (voriconazole 1 µM) it was 48.4%; in data set [2] (voriconazole 2 µM), 53.6%; in data set [2] (voriconazole 3 µM), 57.9%.

B1: rhCYP2C19 (Homo sapiens) (protein)
chain: MDPFVVLVLCLSCLLLLSIWRQSSGRGKLPPGPTPLPVIGNILQIDIKDVSKSLTNLSKIYGPVFTLYFGLERMVVLHGYEVVKEALIDLGEEFSGRGHFPLAERANRGFGIVFSNGKRWKEIRRFSLMTLRNFGMGKRSIEDRVQEEARCLVEELRKTKASPCDPTFILGCAPCNVICSIIFQKRFDYKDQQFLNLMEKLNENIRIVSTPWIQICNNFPTIIDYFPGTHNKLLKNLAFMESDILEKVKEHQESMDINNPRDFIDCFLIKMEKEKQNQQSEFTIENLVITAADLLGAGTETTSTTLRYALLLLLKHPEVTAKVQEEIERVIGRNRSPCMQDRGHMPYTDAVVHEVQRYIDLIPTSLPHAVTCDVKFRNYLIPKGTTILTSLTSVLHDNKEFPNPEMFDPRHFLDEGGNFKKSNYFMPFSAGKRICVGEGLARMELFLFLTFILQNFNLKSLIDPKDLDTTPVVNGFASVPPFYQLCFIPV
As to B1, the Km in the data set “not read” (rhCYP2C19, pH 7.5) was 1.31 (0.862–1.75) µM.

B2: rhCYP2C9 (Homo sapiens) (protein)
chain: MDSLVVLVLCLSCLLLLSLWRQSSGRGKLPPGPTPLPVIGNILQIGIKDISKSLTNLSKVYGPVFTLYFGLKPIVVLHGYEAVKEALIDLGEEFSGRGIFPLAERANRGFGIVFSNGKKWKEIRRFSLMTLRNFGMGKRSIEDRVQEEARCLVEELRKTKASPCDPTFILGCAPCNVICSIIFHKRFDYKDQQFLNLMEKLNENIKILSSPWIQICNNFSPIIDYFPGTHNKLLKNVAFMKSYILEKVKEHQESMDMNNPQDFIDCFLMKMEKEKHNQPSEFTIESLENTAVDLFGAGTETTSTTLRYALLLLLKHPEVTAKVQEEIERVIGRNRSPCMQDRSHMPYTDAVVHEVQRYIDLLPTSLPHAVTCDIKFRNYLIPKGTTILISLTSVLHDNKEFPNPEMFDPHHFLDEGGNFKKSKYFMPFSAGKRICVGEALAGMELFLFLTSILQNFNLKSLVDPKNLDTTPVVNGFASVPPFYQLCFIPV
Consider B2, for which, in the data set “not read” (rhCYP2C9, pH 7.5), the Km is listed as 4.06 (3.32–4.81) µM.

Values taken from article PMC8948939 (Pharmaceutics, 2022).
